Data as given in PMC9135253, “Potential of phenothiazines to synergistically block calmodulin and reactivate PP2A in cancer cells” (PLoS ONE, 2022).
Several values for one entry are separate records, joined by “and”; a condition that tells them apart may be missing. Identical values can stand only once. Like-named read-outs stand apart in the source and are kept apart here.

Key:
Assay type in all cases: cell-based
[1] = tested on: NCI-H358 (KRAS-G12C) 3D spheroids; assay: 3D spheroid formation assay (alamarBlue), NCI-H358; conditions: read-out: IC50 values
Procedure: (§1) 3D spheroid formation assays were performed in 96-well low-attachment, suspension culture plates (cat. no. 655185, Cellstar, Greiner Bio-One) under serum free conditions. About 1000 cells per well were seeded in 50 μL RPMI medium (cat. no. 52400–025, Gibco, ThermoFisher Scientific) containing 0.5% (v/v) MethoCult (cat. no. SF H4636, Stemcell technologies), 1X B27 (cat. no. 17504044, Gibco, ThermoFisher Scientific), 25 ng/mL EGF (cat. no. E9644, Sigma-Aldrich) and 25 ng/ mL FGF (cat. no. RP-8628, ThermoFisher Scientific). Cells were cultured for 3 days and then treated with compounds or vehicle control (DMSO 0.1% (v/v) in growth medium) for another 3 days. The cells were supplemented with fresh growth medium on the third day together with the drug treatment. Spheroid formation efficiency was analyzed by alamarBlue assay reagent (cat. no. DAL1100, ThermoFisher Scientific).
(§2) A 10% (v/v) final volume of alamarBlue reagent was added to each well of the plate and incubated for 4 h at 37°C. Then the fluorescence intensity (λexcitation 560 ± 5 nm and λemission 590 ± 5 nm) was measured using the FLUOstar OPTIMA plate reader (BMG Labtech, Germany).
(§3) (A) Heatmap of ATARiS gene sensitivity scores of two KRAS dependent cell lines (NCI-H358 and MDA-MB-231) and a BRAF dependent cell line (A375). Negative values (shaded red) indicate sensitivity of the cell line proliferation to the knockdown of shown genes, whereas positive scores (shaded blue) indicate insensitivity. (B) IC50 values for indicated compounds in Ras pathway mutant cell lines NCI-H358, MDA-MB231 and A375 grown as 3D spheroids under serum free conditions. […] Statistical comparisons were done using the average values across all three cell lines. […] Positive scores indicate synergistic drug interactions whereas negative scores would denote antagonistic drug interactions. A score of zero would indicate no antagonistic or synergistic effect. (D) Flow cytometric analysis of apoptosis in MDA-MB-231 cells. […] Benzethonium chloride and DMSO treated cells were used as positive and negative controls, respectively, for setting the gates. Percentage of total apoptotic cells (early and late stage) from two biological repeats (mean ± SD) is presented. Statistical analysis was performed using Fisher’s exact test comparing the total number of viable and apoptotic cells from two biological repeats. (E) Effect of inhibitors on cellular apoptosis studied using Caspase-3/7Glo assay. […] The caspase-3/7 activity was measured as a luminescence read-out and normalized to the vehicle control, 0.05% (v/v) DMSO. […] GAPDH detection was used as loading control.

[2] = tested on: A375 (BRAF-V600E) 3D spheroids; assay: 3D spheroid formation assay (alamarBlue), A375
Procedure: as §1, §2, §3

[3] = tested on: MDA-MB-231 (KRAS-G13D) 3D spheroids; assay: 3D spheroid formation assay (alamarBlue), MDA-MB-231; conditions: read-out: IC50 values
Procedure: as §1, §2, §3

MDA-MB-231 cells [4] = assay: Flow cytometry-based apoptosis assay (Annexin V-FITC / 7-AAD); conditions: for apoptotic cells (%): DT-061 10 μM, calmidazolium 5 μM or combination, 24 h
Procedure: MDA-MB-231 cells were grown for 24 h in complete RPMI medium. The next day the cells were treated with inhibitors for 24 h. […] The cells were labelled using the Annexin V-FITC / 7-AAD apoptosis-detection kit (Beckman-Coulter, cat. no. B60224-AB) according to the manufacturer’s instruction.
as §3, with “Negative” for “(A) Heatmap of ATARiS gene sensitivity scores of two KRAS dependent cell lines (NCI-H358 and MDA-MB-231) and a BRAF dependent cell line (A375). Negative”

[5] = tested on: caspase-3/7 activity in MDA-MB-231 cells; assay: Caspase-3/7Glo assay; conditions: 24 h
Excerpt: as §3, with “Negative” for “(A) Heatmap of ATARiS gene sensitivity scores of two KRAS dependent cell lines (NCI-H358 and MDA-MB-231) and a BRAF dependent cell line (A375). Negative”

[6] = tested on: K-RasG12V (Rluc8-/GFP2-tagged) in HEK-293 EBNA cells; assay: K-RasG12V nanoclustering-BRET assay; conditions: for effect on the RasG12V-BRET signals (in words): K-RasG12V and H-RasG12V biosensors; for K-RasG12V BRET: compounds 20 μM, FTI-277 1 μM, OphA 2.5 μM, 24 h
[7] = tested on: H-RasG12V (Rluc8-/GFP2-tagged) in HEK-293 EBNA cells; assay: H-RasG12V nanoclustering-BRET assay; conditions: for H-RasG12V BRET: compounds 20 μM, FTI-277 1 μM, OphA 2.5 μM, 24 h
[8] = tested on: c-MYC in MDA-MB-231 cells; assay: Western blot of c-MYC expression; conditions: 24 h
[9] = tested on: pERK/ERK in MIA PaCa-2 cells; assay: Western blot of MAPK signaling output (pERK/ERK)
MDA-MB-231 cells [10] = assay: 2D cell viability assay (alamarBlue), MDA-MB-231; conditions: MDA-MB-231, 72 h
MIA PaCa-2 cells = assay: 2D cell viability assay (alamarBlue), MIA PaCa-2; conditions: MIA PaCa-2, 72 h
HEK-293 EBNA cells = assay: 2D cell viability assay (alamarBlue), HEK-293 EBNA; conditions: 72 h
[11] = DT-061 5 μM, calmidazolium 5 μM, combination 5 μM each, staurosporine 1 μM, normalized to DMSO, replicates
[12] = K-RasG12V nanoclustering-BRET dose response (0.1–80 μM; OphA 0.3–20 μM), replicates
[13] = K-RasG12V nanoclustering-BRET, mean
[14] = H-RasG12V nanoclustering-BRET dose response (0.1–80 μM; OphA 0.3–20 μM), replicates
[15] = H-RasG12V nanoclustering-BRET, mean
[16] = 10 μM, MDA-MB-231, replicates N1-N4
[17] = 20 μM, MDA-MB-231, replicates N1-N4, values marked * excluded
[18] = MIA PaCa-2 + EGF, same treatments, mean

## O=S(=O)(N[C@@H]1CCC[C@H](N2c3ccccc3Oc3ccccc32)[C@H]1O)c1ccc(OC(F)(F)F)cc1 [DT-061]
[1]; Homo sapiens, NCI-H358, 72 h, NCI-H358 3D spheroids, serum free, 3 days treatment, replicates N1, N2
  IC50: 2400 nM
[1]; Homo sapiens, NCI-H358, NCI-H358 3D spheroids, Mean, n = 2
  IC50: 2650 nM
[1]; NCI-H358 3D spheroids, serum free, 3 days treatment, replicates N1, N2
  IC50: 2890 nM
[2]; A375 3D spheroids, serum free, 3 days treatment, replicates N1, N2
  IC50: 2700 nM
[2]; Homo sapiens, A-375, 72 h, A375 3D spheroids, serum free, 3 days treatment, replicates N1, N2
  IC50: 1500 nM
[2]; Homo sapiens, A-375, A375 3D spheroids, Mean, n = 2
  IC50: 2100 nM
[3]; Homo sapiens, MDA-MB-231, 72 h, MDA-MB-231 3D spheroids, serum free, 3 days treatment, replicates N1, N2
  IC50: 3000 nM
[3]; Homo sapiens, MDA-MB-231, MDA-MB-231 3D spheroids, Mean, n = 2
  IC50: 3050 nM
[3]; MDA-MB-231 3D spheroids, serum free, 3 days treatment, replicates N1, N2
  IC50: 3100 nM
MDA-MB-231 cells [4]; early and late stage, replicates N1, N2
  apoptotic cells (%): 17.3843% and 7.228%
MDA-MB-231 cells [4]; mean
  apoptotic cells (%): 12.31%
MDA-MB-231 cells [4]; MDA-MB-231, 24 h
  apoptotic cell population: 12%
[5]; [11]
  caspase 3/7 activity (fold change): 0.9556 fold change and 1.016 fold change
[5]; same treatments, mean
  caspase 3/7 activity (fold change): 0.99 fold change
[6]
  effect on the RasG12V-BRET signals (in words): Neither the PP2A activator DT-061, nor Flu had an effect
[6]; [12]
  DSS3 BRET score: 0.6 and 1
[6]; [13]
  DSS3 BRET score: 0.8
[6]; A/D plasmid ratio 4/1, individual replicates N1.1-N3.4
  K-RasG12V BRET: 102.439 and 101.315 and 102.277 and 100.953 and 98.6605 and 100.047 and 101.073 and 97.4843
[6]; mean
  K-RasG12V BRET: 100.53
[7]; [14]
  DSS3 BRET score: 0.2 and 0.4
[7]; [15]
  DSS3 BRET score: 0.3
[7]; A/D plasmid ratio 4/1, individual replicates N1.1-N2.4
  H-RasG12V BRET: 100.79 and 100.058 and 101.294 and 101.06 and 100.674 and 100.693 and 99.8758 and 99.7238
[7]; mean
  H-RasG12V BRET: 100.52
[8]; [16]
  c-MYC/Vinculin relative expression: 1.352 and 1.842 and 0.8895 and 1.57
[8]; 10 μM, Mean (DMSO 1.78)
  c-MYC/Vinculin relative expression: 1.41
[8]; [17]
  c-MYC/Vinculin relative expression: 1.784* and 1.955* and 0.7599 and 0.9549
[8]; 20 μM, Mean (DMSO 1.48)
  c-MYC/Vinculin relative expression: 0.86
[9]; MIA PaCa-2 + EGF, 2 h, trametinib 1 μM, AMG-510 1 μM, calmidazolium 20 μM, DT-061 20 μM, combination each 10 μM, fluphenazine mustard 20 μM, replicates N1-N3
  normalized pERK/ERK ratio %: 84.4108% and 54.7097% and 80.94%
[9]; [18]
  normalized pERK/ERK ratio %: 73.35%

## FC(F)(F)c1ccc2c(c1)N(CCCN1CCN(CCCl)CC1)c1ccccc1S2 [fluphenazine mustard]
[6]
  effect on the RasG12V-BRET signals (in words): even stronger effect than CMZ
[6]; [12]
  DSS3 BRET score: 17.9 and 3.8 and 4.3 and 7 and 12.9
[6]; [13]
  DSS3 BRET score: 9.18
[6]; mean
  K-RasG12V BRET: 72.64
[7]; [14]
  DSS3 BRET score: 13.1 and 5.3 and 9.9 and 9.6
[7]; [15]
  DSS3 BRET score: 9.48
[7]; mean
  H-RasG12V BRET: 65.64
[8]; [16]
  c-MYC/Vinculin relative expression: 0.7502 and 0.7758 and 0.7975 and 1.298
[8]; 10 μM, Mean (DMSO 1.78)
  c-MYC/Vinculin relative expression: 0.91
[8]; [17]
  c-MYC/Vinculin relative expression: 1.798* and 1.478 and 1.405 and 0.9115
[8]; 20 μM, Mean (DMSO 1.48)
  c-MYC/Vinculin relative expression: 1.26
[9]
  normalized pERK/ERK ratio %: 46.7324% and 34.232% and 39.0258%
[9]; [18]
  normalized pERK/ERK ratio %: 40%
MDA-MB-231 cells [10]; Mean
  2D monolayer DSS3: 32.27
MDA-MB-231 cells [10]; replicates N1-N3
  2D monolayer DSS3: 27.5 and 31.9 and 37.4
MIA PaCa-2 cells; Mean
  2D monolayer DSS3: 65.73
MIA PaCa-2 cells; replicates N1-N3
  2D monolayer DSS3: 64.1 and 65.3 and 67.8
HEK-293 EBNA cells; Mean
  2D monolayer DSS3: 5.4
HEK-293 EBNA cells; replicates N1-N3
  2D monolayer DSS3: 6.1 and 5.1 and 5

## CN[C@@H]1C[C@H]2O[C@@](C)([C@@H]1OC)n1c3ccccc3c3c4c(c5c6ccccc6n2c5c31)C(=O)NC4 [staurosporine]
[5]; [11]
  caspase 3/7 activity (fold change): 5.7754 fold change and 5.5715 fold change and 6.4904 fold change and 6.254 fold change
[5]; same treatments, mean
  caspase 3/7 activity (fold change): 6.02 fold change
